Results reported in patent US20160069887A1, “BIOMARKERS FOR PROGNOSIS” (ISIS INNOVATION LIMITED, priority 2013, published 2016).
Values belong to the molecule of their own block, whether it stands above or below them. Where a SMILES comes first, the peptide text is derived from it. The star is where a group is joined. Cbz = O=C(OCc1ccccc1)*

Key:
U2OS cells [1] = assay: Immunoblot for apoptosis (PARP) and autophagy (LC3 cleavage); format: cell-based; conditions: co-treatment SAHA and 3-methyladenine (10 mM) for 18 hr
[2] = tested on: Flag-HDAC6 stable inducible cell line; assay: Immunoblot of endogenous HR23B and cleaved caspase 3 upon induction of Flag-HDAC6; conditions: for HDAC6-dependent down-regulation of HR23B: Dox-induced Flag-HDAC6, 3MA 5 and 10 mM, 17-AAG 0.1 or 1 μM, tubastatin 10 μM, bortezomib 48 hr
U2OS cells [3] = assay: Global ubiquitination (His6-ubiquitin, Ni2+ pull-down, anti-His immunoblot); format: cell-based; conditions: for global ubiquitination, SAHA and MG132 combined: SAHA 5 μM 20 hr and MG132 20 μM 4 hr
Method: Cell lysates and Ni^2+ pull-down eluates were analyzed by immunoblotting with anti-His as described. The input HR23B is shown underneath, together with actin levels.
Ni^2+ pull-down eluates were analyzed by immunoblotting with anti-His. The input HR23B level is shown underneath, together with actin levels.
Transfected cells in a 10 cm dish were washed twice with ice-cold PBS and harvested into 1 ml of 8M urea, 0.1 M Na2HPO4/NaH2PO4, 0.01M Tris-HCl, and pH8.0. Lysates were sheared by taking through 23 gauge needle to reduce viscosity. Protein concentration was measured with Bradford (Bio-Rad) and normalised. About 100 μl of lysate was mixed with 4×SDS loading buffer for input. Then 900 μl of lysate was incubated with 70 μl of a 50% slurry of nickel (Ni^2+-NTA)-agarose beads (Qiagen), 5 mM imidazole and 10 mM β-mercaptoethanol overnight at 4° C. The beads were collected by 1 min centrifugation at 8,000 rpm and washed with 750 μl of the following buffers with 5 min mixing at room temperature for each washing step: twice with 8M urea, 0.1M Na2HPO4/NaH2PO4, 0.01 M Tris-HCl, pH 8.0, 10 mM β-mercaptoethanol and 0.1% Triton X-100; three times with 8M urea, 0.1M Na2HPO4/NaH2PO4, 0.01M Tris-HCl, pH 6.3, 10 mM β-mercaptoethanol and 0.1% Triton X-100. The bound proteins were then eluted with 100 μl of elution buffer (200 mM imidazole, 5% SDS, 150 mM Tris-HCl pH6.8, 30% glycerol, 720 mM β-mercaptoethanol, 0.005% bromophenol blue) for 30 min incubation followed by 10 min spin at 13,000 rpm. Samples were heated to 95° C. for 5 min, cooled, and a typical volume of 30 μl loaded on each lane for immunoblot analysis.

[4] = tested on: HUT78, MYLA (CTCL), A2058, A375 (melanoma), HCT116 and HCT15 (CRC); assay: Immunoblot of autophagy markers and HR23B in tumour cell lines treated with HDAC inhibitors; format: cell-based; conditions: for autophagy markers (LC3 cleavage, LAMP1, cathepsin D): immunoblot after 18 hr or 24 hr treatment
U2OS cells [5] = assay: Visualisation of autophagosomes by anti-LC3 immunostaining; format: cell-based
Method: Counter-stain with DAPI was superimposed for each image.
Cells seeded onto coverslips were washed in PBS and fixed in 3.7% formaldehyde for 15 min. Cells were permeabilised in PBS containing 0.5% Triton X-100 for 5 min and then blocked in 5% FCS/PBS for 30 min at room temperature before incubation with primary antibody as indicted. Coverslips were washed in PBS containing 0.05% Tween-20 and incubated with corresponding secondary antibodies for 30 min at room temperature. Alexa Fluro 488 (green fluorescence) or Alexa Fluor 594 (red fluorescence) (Molecular Probes). Finally coverslips were washed extensively in PBS containing 0.05% Tween-20 and mounted onto microscope slides using Vectashield containing DAPI (Vector Laboratories).

[6] = tested on: patients after potentially-curative surgery for stage II/III colorectal cancer; conditions: 1167 rofecoxib patients; median follow-up 4.84 years; cited from earlier work
[7] = target: T1, Flag-HDAC6 (wild-type, full length, ectopic) (human, UniProt Q9UBN7 1-1215); assay: anti-Flag co-immunoprecipitation of Flag-HDAC6 from co-transfected U2OS cells, anti-Myc immunoblot
T1 construct: Expressed by transfection or by doxycycline induction in U2OS cells; also called pcDNA-Flag-HDAC6; WT HDAC6; not shown: Flag tag
T1 sequence: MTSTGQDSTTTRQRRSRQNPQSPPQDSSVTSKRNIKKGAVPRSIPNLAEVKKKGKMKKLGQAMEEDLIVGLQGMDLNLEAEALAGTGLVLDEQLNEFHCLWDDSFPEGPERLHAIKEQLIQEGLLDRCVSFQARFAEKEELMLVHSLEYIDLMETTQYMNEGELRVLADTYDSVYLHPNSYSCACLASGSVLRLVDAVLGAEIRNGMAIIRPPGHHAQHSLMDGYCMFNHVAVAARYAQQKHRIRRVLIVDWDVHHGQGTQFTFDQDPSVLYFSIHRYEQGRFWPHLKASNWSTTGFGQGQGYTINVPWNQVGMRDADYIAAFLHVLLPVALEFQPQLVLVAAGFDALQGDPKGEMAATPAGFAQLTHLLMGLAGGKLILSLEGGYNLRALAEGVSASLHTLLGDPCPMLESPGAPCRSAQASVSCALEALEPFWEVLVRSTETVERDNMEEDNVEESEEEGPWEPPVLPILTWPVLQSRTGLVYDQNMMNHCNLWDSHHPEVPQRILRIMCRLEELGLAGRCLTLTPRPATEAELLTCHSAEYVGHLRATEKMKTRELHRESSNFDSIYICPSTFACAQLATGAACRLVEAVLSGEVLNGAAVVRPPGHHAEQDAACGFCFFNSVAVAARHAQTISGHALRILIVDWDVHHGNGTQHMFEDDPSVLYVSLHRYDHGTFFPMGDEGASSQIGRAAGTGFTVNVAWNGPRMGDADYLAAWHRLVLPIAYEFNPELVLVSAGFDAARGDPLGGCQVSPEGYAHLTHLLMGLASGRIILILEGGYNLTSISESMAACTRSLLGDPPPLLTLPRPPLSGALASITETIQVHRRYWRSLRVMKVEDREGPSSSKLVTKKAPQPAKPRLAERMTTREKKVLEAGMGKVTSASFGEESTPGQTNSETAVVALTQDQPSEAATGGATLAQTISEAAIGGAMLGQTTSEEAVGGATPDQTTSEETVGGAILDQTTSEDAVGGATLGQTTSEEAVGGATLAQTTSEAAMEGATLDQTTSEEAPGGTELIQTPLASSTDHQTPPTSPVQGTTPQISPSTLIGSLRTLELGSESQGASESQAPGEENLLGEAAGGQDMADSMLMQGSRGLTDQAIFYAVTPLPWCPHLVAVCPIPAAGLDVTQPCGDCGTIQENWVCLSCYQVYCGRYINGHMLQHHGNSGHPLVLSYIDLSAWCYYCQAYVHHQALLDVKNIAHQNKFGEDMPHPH

Molecule: Cn1cnc(N)c2ncnc1-2 [3-MA, 3-methyladenine]
- level of apoptosis (U2OS cells [1]): an enhanced level of apoptosis was apparent
- HDAC6-dependent down-regulation of HR23B [2]: failed to affect down-regulation of HR23B by HDAC6

Molecule: C=CCNC1=C2C[C@@H](C)C[C@H](OC)[C@H](O)[C@@H](C)/C=C(\C)[C@H](OC(N)=O)[C@@H](OC)/C=C\C=C(/C)C(=O)NC(=CC1=O)C2=O [17-AAG]
- HDAC6-dependent down-regulation of HR23B [2]: HDAC6 failed to down-regulate HR23B

Molecule: CC(C)C[C@@H](C=O)NC(=O)[C@H](CC(C)C)NC(=O)[C@H](CC(C)C)NC(=O)OCc1ccccc1 [MG132] (Cbz-Leu-Leu-Leu-aldehyde)
- global ubiquitination, SAHA and MG132 combined (U2OS cells [3]): even greater level of ubiquitination
- global ubiquitination, single agent (U2OS cells [3]; SAHA 5 μM 20 hr or MG132 20 μM 4 hr, vs untreated): increase in ubiquitination

Molecule: O=C(CCCCCCC(=O)Nc1ccccc1)NO [SAHA, N-hydroxy-N′-phenyloctanediamide]
- level of HR23B ([4]; at increasing SAHA concentration, coinciding with autophagocytic markers): decreased levels of HR23B
- autophagy markers (LC3 cleavage, LAMP1, cathepsin D) [4]: caused LC3 cleavage as well as the appearance of LAMP1 and cathepsin D
- autophagosomes when ectopic HR23B was expressed (U2OS cells [5]; SAHA 10 μM for 18 hr, + vs − doxycycline): less evident
- visual appearance of autophagosomes (U2OS cells [5]; SAHA 10 and 20 μM): visual appearance of autophagosomes in cells
- level of apoptosis (U2OS cells [1]): an enhanced level of apoptosis was apparent
- global ubiquitination, SAHA and MG132 combined (U2OS cells [3]): even greater level of ubiquitination

Molecule: CS(=O)(=O)c1ccc(C2=C(c3ccccc3)C(=O)OC2)cc1 [rofecoxib]
- deaths [6]: 241
- recurrences [6]: 297

Molecule: CCCC(CCC)C(=O)O [valproic acid, 2-Propylpentanoic acid]
- autophagy markers (LC3 cleavage, LAMP1, cathepsin D) [4]: resulted in similar effects

Molecule: tubastatin
- HDAC6-dependent down-regulation of HR23B [2]: did not impact on the HDAC6-dependent down-regulation of HR23B
- increase in HR23B upon 17-AAG treatment ([2]; tubastatin 10 μM together with 17-AAG): did prevent the increase in HR23B upon 17-AAG treatment

- binding result [7]: no binding
B1: HR23B ΔUbL, myc/his tagged (other)
chain: AVSTPAPATTQQSAPASTTAVTSSTTTTVAQAPTPVPALAPTSTPASITPASATASSEPAPASAAKQEKPAEKPAETPVATSPTATDSTSGDSSRSNLFEDATSALVTGQSYENMVTEIMSMGYEREQVIAALRASFNNPDRAVEYLLMGIPGDRESQAVVDPPQAASTGAPQSSAVAAAAATTTATTTTTSSGGHPLEFLRNQPQFQQMRQIIQQNPSLLPALLQQIGRENPQLLQQISQHQEHFIQMLNEPVQEAGGQGGGGGGGSGGIAEAGSGHMNYIQVTPQEKEAIERLKALGFPEGLVIQAYFACEKNENLAANFLLQQNFDED
notes: not shown: myc/his tag from the pcDNA3.1 (+)/Myc-His vector
